Results published in patent US20220039383A1, “Use of the Succinate Dehydrogenase Inhibitor Fluopyram for Controlling Claviceps Purpurea and Reducing Sclerotia in Cereals” (Bayer Aktiengesellschaft, priority 2018, published 2022).

Legend:
[1] = system: spring wheat variety CTC Utmost; assay: Field test plot 2017, Canada: yield of spring wheat treated against Claviceps purpurea; assay type: in vivo; details: EC 150 g/l, 1.333 L/HA, 200 g/ha, untreated = 100
Procedure: (§1) In Canada, in 2017, a test plot was conducted with the spring wheat variety CTC Utmost. Fluopyram as well as market standards were applied according to table 1 on July 7th between BBCH stage59 and 61 (. Assessment of sclerotia was done in fall 2017 96 days post application.

[2] = system: Claviceps purpurea; assay: Field test plot 2017, Canada: foliar application, assessment of sclerotia (ergot bodies) in spring wheat CTC Utmost; assay type: in vivo; details: EC 150 g/l, 1.333 L/HA, 200 g/ha, applied BBCH 59-61, 96 days post application
Procedure: as §1

What does the source list for `O=C(NCCc1ncc(C(F)(F)F)cc1Cl)c1ccccc1C(F)(F)F` [Fluopyram, N-{[3-chloro-5-(trifluoromethyl)-2-pyridinyl]ethyl}-2-trifluoromethylbenzamide]?
% yield compared to Untreated [1]: 109.85%; Number of Ergot bodies per kg seed [2]: 5 per kg seed
